Test results reported in patent US20230373952A1, “LACTAM COMPOUNDS AS Kv1.3 POTASSIUM SHAKER CHANNEL BLOCKERS” (D.E. Shaw Research, LLC, priority 2020, published 2023).

Legend:
Kv1.3 potassium channel = molecular target: T1, Kv1.3 potassium channel (Homo sapiens, UniProt P22001); test: Kv1.3 potassium channel blocker activity, automated whole-cell patch clamp (Patchliner); format: cell-based; settings: CHO-K1 cells stably expressing Kv1.3; whole-cell current inhibition, Hill fit; read-out: Kv1.3 IC50
T1 construct: expressed in transfected cells
T1 sequence (P22001 whole entry): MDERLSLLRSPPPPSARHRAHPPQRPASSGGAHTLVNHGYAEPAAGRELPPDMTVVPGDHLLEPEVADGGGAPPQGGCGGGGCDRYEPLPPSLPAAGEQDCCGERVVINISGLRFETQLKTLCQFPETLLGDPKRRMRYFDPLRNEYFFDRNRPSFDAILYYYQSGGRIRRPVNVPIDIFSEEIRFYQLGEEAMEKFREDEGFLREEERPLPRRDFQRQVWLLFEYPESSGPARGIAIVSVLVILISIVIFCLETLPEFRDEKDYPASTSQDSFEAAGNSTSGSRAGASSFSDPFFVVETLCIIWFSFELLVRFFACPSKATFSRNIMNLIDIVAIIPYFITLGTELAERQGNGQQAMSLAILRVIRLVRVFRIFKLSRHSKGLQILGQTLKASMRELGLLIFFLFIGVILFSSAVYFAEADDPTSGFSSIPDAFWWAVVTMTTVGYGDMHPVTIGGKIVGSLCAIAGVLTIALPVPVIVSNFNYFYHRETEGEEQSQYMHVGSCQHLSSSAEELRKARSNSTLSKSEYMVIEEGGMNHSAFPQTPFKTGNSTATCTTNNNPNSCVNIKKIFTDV
Description: CHO-K1 cells stably expressing Kv1.3 were grown in DMEM containing 10% heat-inactivated FBS, 1 mM sodium pyruvate, 2 mM L-glutamine and G418 (500 μg/ml).
The currents were evoked by applying 100 ms depolarizing pulses from −90 mV (holding potential) to +40 mV were applied with 0.1 Hz frequency. […] 10-second breaks were used between pulse trains (see Table H below).
Passive leak currents were subtracted online using a P/4 procedure (HEKA Elektronik Dr. Schulze GmbH). […] Total compound incubation time before the next pulse train was not longer than 10 seconds. Peak current inhibition was observed during compound equilibration.

hERG channel = hERG channel (Homo sapiens, UniProt Q12809); test: cell-based
Sequence of hERG channel (Q12809 whole entry): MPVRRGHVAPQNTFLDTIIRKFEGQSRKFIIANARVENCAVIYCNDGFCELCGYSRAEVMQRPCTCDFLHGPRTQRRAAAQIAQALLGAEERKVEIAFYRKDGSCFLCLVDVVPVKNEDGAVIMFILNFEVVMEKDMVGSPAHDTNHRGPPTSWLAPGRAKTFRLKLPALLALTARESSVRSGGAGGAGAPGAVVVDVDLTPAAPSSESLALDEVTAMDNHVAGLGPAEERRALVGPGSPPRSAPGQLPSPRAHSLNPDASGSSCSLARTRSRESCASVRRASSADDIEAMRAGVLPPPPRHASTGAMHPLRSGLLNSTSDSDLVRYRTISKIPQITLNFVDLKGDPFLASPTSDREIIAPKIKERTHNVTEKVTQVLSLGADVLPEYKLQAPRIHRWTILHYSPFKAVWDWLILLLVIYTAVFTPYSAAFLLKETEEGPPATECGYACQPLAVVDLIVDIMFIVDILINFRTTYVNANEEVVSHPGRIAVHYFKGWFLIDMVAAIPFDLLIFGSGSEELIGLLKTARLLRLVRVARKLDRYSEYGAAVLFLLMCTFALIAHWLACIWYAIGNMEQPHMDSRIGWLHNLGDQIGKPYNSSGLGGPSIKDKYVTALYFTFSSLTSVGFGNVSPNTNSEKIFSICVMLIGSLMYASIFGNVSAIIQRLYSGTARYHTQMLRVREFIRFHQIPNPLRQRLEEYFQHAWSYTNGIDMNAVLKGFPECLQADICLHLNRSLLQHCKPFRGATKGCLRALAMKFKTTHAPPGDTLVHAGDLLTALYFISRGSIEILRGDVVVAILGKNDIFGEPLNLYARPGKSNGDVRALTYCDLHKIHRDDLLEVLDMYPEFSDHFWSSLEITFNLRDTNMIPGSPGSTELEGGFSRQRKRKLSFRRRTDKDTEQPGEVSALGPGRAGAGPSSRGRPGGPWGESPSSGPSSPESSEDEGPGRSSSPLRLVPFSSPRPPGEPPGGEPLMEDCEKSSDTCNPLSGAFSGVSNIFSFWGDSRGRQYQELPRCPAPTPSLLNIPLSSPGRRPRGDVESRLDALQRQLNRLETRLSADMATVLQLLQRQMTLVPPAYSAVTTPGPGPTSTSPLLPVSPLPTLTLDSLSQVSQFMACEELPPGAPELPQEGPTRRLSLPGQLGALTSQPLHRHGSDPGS
Description: This assay is used to evaluate the disclosed compounds' inhibition activities against the hERG channel.
CHO-K1 cells stably expressing hERG were grown in Ham's F-12 Medium with glutamine containing 10% heat-inactivated FBS, 1% penicillin/streptomycin, hygromycin (100 μg/ml) and G418 (100 μg/ml). Cells were grown in culture flasks at 37° C. in a 5% CO2-humidified incubator.
All compounds were dissolved in DMSO at 30 mM. Compound stock solutions were freshly diluted with external solution to concentrations of 30 nM, 100 nM, 300 nM, 1 μM, 3 μM, 10 μM, 30 μM and 100 μM. The highest content of DMSO (0.3%) was present in 100 μM.
The voltage protocol (see Table I) was designed to simulate voltage changes during a cardiac action potential with a 300 ms depolarization to +20 mV (analogous to the plateau phase of the cardiac action potential), a repolarization for 300 ms to −50 mV (inducing a tail current) and a final step to the holding potential of −80 mV. The pulse frequency was 0.3 Hz. Control (compound-free) and compound pulse trains for each compound concentration applied contained 70 pulses.
Whole-cell current recordings and compound application were enabled by means of an automated patch clamp platform Patchliner (Nanion). EPC 10 patch clamp amplifier (HEKA) along with Patchmaster software (HEKA Elektronik Dr. Schulze GmbH) was used for data acquisition. Data were sampled at 10 kHz without filtering. Increasing compound concentrations were applied consecutively to the same cell without washouts in between.
AUC and PEAK values were obtained with Patchmaster (HEKA Elektronik Dr. Schulze GmbH). To determine IC50 the last single pulse in the pulse train corresponding to a given compound concentration was used. Obtained AUC and PEAK values in the presence of compound were normalized to control values in the absence of compound.

| SMILES | IC50 (Kv1.3 potassium channel) [nM] | IC50 (hERG channel) [nM] |
| --- | --- | --- |
| N[C@@H](CO)CN1C[C@H](c2c(O)ccc(Cl)c2Cl)CC1=O [Compound 49, (4S)-1-[(2R)-2-amino-3-hydroxypropyl]-4-(2,3-dichloro-6-hydroxyphenyl)pyrrolidin-2-one] | < 100 | – |
| N[C@H]1C(=O)N(C2CNC2)C[C@@H]1c1c(O)ccc(Cl)c1Cl [Compound 92, (3R,4S)-3-amino-1-(azetidin-3-yl)-4-(2,3-dichloro-6-hydroxyphenyl)pyrrolidin-2-one] | < 1000 | > 100000 |
| O=C1C[C@@H](c2c(O)ccc(Cl)c2Cl)CN1[C@H]1C[C@H](CO)C1 (single isomer, unassigned; isomer 1) [Compound 25] | < 100 | > 30000 |
| O=C1N[C@@H](c2c(O)ccc(Cl)c2Cl)CN1C[C@@H](O)CO [Compound 103, (4S)-4-(2,3-dichloro-6-hydroxyphenyl)-1-[(2R)-2,3-dihydroxypropyl]imidazolidin-2-one] | < 1000 | > 100000 |
| COCCCN1C[C@H](c2c(O)ccc(Cl)c2Cl)CC1=O [Compound 44, (S)-4-(2,3-dichloro-6-hydroxyphenyl)-1-(3-methoxypropyl)pyrrolidin-2-one] | < 100 | > 10000 |
| O=C1CNCCN1CCN1C[C@H](c2c(O)ccc(Cl)c2Cl)CC1=O [Compound 75, 1-[2-[(4S)-4-(2,3-dichloro-6-hydroxyphenyl)-2-oxopyrrolidin-1-yl]ethyl]piperazin-2-one] | < 100 | > 30000 |
| CC(O)(CO)CN1C[C@H](c2c(O)ccc(Cl)c2Cl)CC1=O (stereo partly drawn) [Compound 55, (4S)-4-(2,3-dichloro-6-hydroxyphenyl)-1-(2,3-dihydroxy-2-methylpropyl)pyrrolidin-2-one] | < 1000 | > 100000 |
| O=C1C[C@@H](c2c(O)ccc(Cl)c2Cl)CN1C1CC(F)(F)C1 [Compound 74, (S)-4-(2,3-dichloro-6-hydroxyphenyl)-1-(3,3-difluorocyclobutyl)pyrrolidin-2-one] | < 1000 | > 30000 |
| O=C1C[C@@H](c2c(O)ccc(Cl)c2Cl)CCN1[C@H]1CCNC1 (single isomer, unassigned) [Compound 2, 4-(2,3-dichloro-6-hydroxyphenyl)-1-[pyrrolidin-3-yl]piperidin-2-one] | < 100 | > 30000 |
| O=C1C[C@@H](c2c(O)ccc(Cl)c2Cl)CN1CC1CNC1 [Compound 20, (4S)-1-(azetidin-3-ylmethyl)-4-(2,3-dichloro-6-hydroxyphenyl)pyrrolidin-2-one] | < 100 | > 100000 |
| O=C1CN[C@@H](c2c(O)ccc(Cl)c2Cl)CN1C1CNC1 (single isomer, unassigned; isomer 1) [Compound 97, 1-(azetidin-3-yl)-5-(2,3-dichloro-6-hydroxyphenyl)piperazin-2-one isomer 1] | < 1000 | – |
| O=C1CO[C@@H](c2c(O)ccc(Cl)c2Cl)CN1CCO (single isomer, unassigned; isomer 2) [Compound 96, 6-(2,3-dichloro-6-hydroxyphenyl)-4-(2-hydroxyethyl)morpholin-3-one isomer 2] | < 30000 | – |
| CC1[C@@H](c2c(O)ccc(Cl)c2Cl)CC(=O)N1CCO (stereo in doubt) [Compound 80, (4R,5R)-4-(2,3-dichloro-6-hydroxyphenyl)-1-(2-hydroxyethyl)-5-methylpyrrolidin-2-one] | < 10000 | – |
| O=C1C[C@@H](c2c(O)ccc(Cl)c2Cl)CN1C(CO)CO [Compound 18, (4S)-4-(2,3-dichloro-6-hydroxyphenyl)-1-(1,3-dihydroxypropan-2-yl)pyrrolidin-2-one] | < 1000 | – |
| Cc1cc(N2C[C@H](c3c(O)ccc(Cl)c3Cl)CC2=O)no1 [Compound 73, (S)-4-(2,3-dichloro-6-hydroxyphenyl)-1-(5-methylisoxazol-3-yl)pyrrolidin-2-one] | < 10000 | – |
| O=C1C[C@@H](c2c(O)ccc(Cl)c2Cl)CN1C1CCOC1 (single isomer, unassigned; isomer 2) [Compound 28] | < 1000 | – |
| C[C@H]1[C@@H](c2c(O)ccc(Cl)c2Cl)CC(=O)N1C1CNC1 [Compound 83, (4R,5S)-1-(azetidin-3-yl)-4-(2,3-dichloro-6-hydroxyphenyl)-5-methylpyrrolidin-2-one] | < 10000 | – |
| CC1[C@@H](c2c(O)ccc(Cl)c2Cl)CC(=O)N1C[C@H](O)CO (stereo in doubt) [Compound 78, (4R,5R)-4-(2,3-dichloro-6-hydroxyphenyl)-1-[(2S)-2,3-dihydroxypropyl]-5-methylpyrrolidin-2-one] | < 10000 | – |
| O=C1C[C@@H](c2c(O)ccc(Cl)c2Cl)CCN1[C@@H]1CCNC1 (single isomer, unassigned) [Compound 4, 4-(2,3-dichloro-6-hydroxyphenyl)-1-[pyrrolidin-3-yl]piperidin-2-one] | < 1000 | – |
| N[C@@H]1C(=O)N(C2CNC2)C[C@H]1c1c(O)ccc(Cl)c1Cl [Compound 91, (3S,4R)-3-amino-1-(azetidin-3-yl)-4-(2,3-dichloro-6-hydroxyphenyl)pyrrolidin-2-one] | < 10000 | – |

| SMILES | IC50 (Kv1.3 potassium channel) [nM] | IC50 (hERG channel) [nM] |
| --- | --- | --- |
| C[C@H]1[C@@H](c2c(O)ccc(Cl)c2Cl)CC(=O)N1CCO [Compound 85, (4R,5S)-4-(2,3-dichloro-6-hydroxyphenyl)-1-(2-hydroxyethyl)-5-methylpyrrolidin-2-one] | < 30000 | – |
| C[C@H]1C(=O)N(C2CNC2)C[C@H]1c1c(O)ccc(Cl)c1Cl (single isomer, unassigned; isomer 1) [Compound 87, 1-(azetidin-3-yl)-4-(2,3-dichloro-6-hydroxyphenyl)-3-methylpyrrolidin-2-one isomer 1] | < 1000 | – |
| C[C@H]1C(=O)N(C2CNC2)C[C@@H]1c1c(O)ccc(Cl)c1Cl (single isomer, unassigned; isomer 3) [Compound 89, 1-(azetidin-3-yl)-4-(2,3-dichloro-6-hydroxyphenyl)-3-methylpyrrolidin-2-one isomer 3] | < 10000 | – |
| O=C1N[C@@H](c2c(O)ccc(Cl)c2Cl)CCN1[C@H]1CCNC1 (single isomer, unassigned) [Compound 8, 4-(2,3-dichloro-6-hydroxyphenyl)-1-[pyrrolidin-3-yl]-tetrahydropyrimidin-2(1H)-one] | < 1000 | – |
| O=C1C[C@@H](c2c(O)ccc(Cl)c2Cl)CN1c1cnn(CCO)c1 [Compound 69, (S)-4-(2,3-dichloro-6-hydroxyphenyl)-1-(1-(2-hydroxyethyl)-1H-pyrazol-4-yl)pyrrolidin-2-one] | < 100 | – |
| O=C1CC[C@@H](c2c(O)ccc(Cl)c2Cl)CN1[C@H]1CCNC1 (single isomer, unassigned) [Compound 6, 5-(2,3-dichloro-6-hydroxyphenyl)-1-[pyrrolidin-3-yl]piperidin-2-one] | < 1000 | – |
| O=C1N[C@H](c2c(O)ccc(Cl)c2Cl)CCN1[C@H]1CCNC1 (single isomer, unassigned) [Compound 10, 4-(2,3-dichloro-6-hydroxyphenyl)-1-[pyrrolidin-3-yl]-tetrahydropyrimidin-2(1H)-one] | < 1000 | – |
| CC(C)(O)CCN1C[C@H](c2c(O)ccc(Cl)c2Cl)CC1=O [Compound 45, (S)-4-(2,3-dichloro-6-hydroxyphenyl)-1-(3-hydroxy-3-methylbutyl)pyrrolidin-2-one] | < 1000 | – |
| N[C@H](CO)CN1C[C@H](c2c(O)ccc(Cl)c2Cl)CC1=O [Compound 50, (4S)-1-[(2S)-2-amino-3-hydroxypropyl]-4-(2,3-dichloro-6-hydroxyphenyl)pyrrolidin-2-one] | < 100 | – |
| C[C@H](O)CCN1C[C@H](c2c(O)ccc(Cl)c2Cl)CC1=O (single isomer, unassigned; isomer 2) [Compound 48] | < 100 | – |
| C[C@@H](O)CCN1C[C@H](c2c(O)ccc(Cl)c2Cl)CC1=O (single isomer, unassigned; isomer 1) [Compound 47] | < 100 | – |
| O=C1C[C@@H](c2c(O)ccc(Cl)c2Cl)CN1c1cccnc1 [Compound 63, (S)-4-(2,3-dichloro-6-hydroxyphenyl)-1-(pyridin-3-yl)pyrrolidin-2-one] | < 1000 | – |
| C[C@@H]1[C@H](c2c(O)ccc(Cl)c2Cl)CC(=O)N1CCO [Compound 84, (4S,5R)-4-(2,3-dichloro-6-hydroxyphenyl)-1-(2-hydroxyethyl)-5-methylpyrrolidin-2-one] | < 1000 | – |
| O=C1C[C@@H](c2c(O)ccc(Cl)c2Cl)CN1[C@H]1CCOC1 (single isomer, unassigned; isomer 1) [Compound 27] | < 1000 | – |
| O=C1C[C@H](c2c(O)ccc(Cl)c2Cl)CCN1[C@@H]1CCNC1 (single isomer, unassigned) [Compound 3, 4-(2,3-dichloro-6-hydroxyphenyl)-1-[pyrrolidin-3-yl]piperidin-2-one] | < 1000 | – |
| O=C1CN[C@H](c2c(O)ccc(Cl)c2Cl)CN1C1CNC1 (single isomer, unassigned; isomer 2) [Compound 98, 1-(azetidin-3-yl)-5-(2,3-dichloro-6-hydroxyphenyl)piperazin-2-one isomer 2] | < 30000 | – |
| Cn1cnc(N2C[C@H](c3c(O)ccc(Cl)c3Cl)CC2=O)c1 [Compound 59, (S)-4-(2,3-dichloro-6-hydroxyphenyl)-1-(1-methyl-1H-imidazol-4-yl)pyrrolidin-2-one] | < 1000 | – |
| C[C@@H]1C(=O)N(C2CNC2)C[C@H]1c1c(O)ccc(Cl)c1Cl (single isomer, unassigned; isomer 2) [Compound 88, 1-(azetidin-3-yl)-4-(2,3-dichloro-6-hydroxyphenyl)-3-methylpyrrolidin-2-one isomer 2] | < 10000 | – |
| Cc1cc(N2C[C@H](c3c(O)ccc(Cl)c3Cl)CC2=O)sn1 [Compound 60, (S)-4-(2,3-dichloro-6-hydroxyphenyl)-1-(3-methylisothiazol-5-yl)pyrrolidin-2-one] | < 1000 | – |
